# Reference: the NIST ThermoML archive (doi:10.1016/j.jct.2016.03.020)
# Conditions: Liquid, Gas chromatography
smiles,measurement,setting,value
Cc1coc2c1CC[C@@H](C)C2 [(R)-menthofuran],vapor or sublimation pressure,298.15 K,0.036 kPa
same,vapor or sublimation pressure,374.3 K,2.93 kPa
same,vapor or sublimation pressure,380 K,3.76 kPa
same,vapor or sublimation pressure,400 K,8.37 kPa
same,vapor or sublimation pressure,420 K,17.06 kPa
same,vapor or sublimation pressure,482.4 K,101.23 kPa
